The text below walks through data of patent US20110077198A1, “COMPOSITIONS AND METHODS FOR INHIBITING THE ACTIVATION OF DSRNA-DEPENDENT PROTEIN KINASE AND TUMOR GROWTH INHIBITION” (priority 2007, published 2011).

In one data set the test system is MAC16 cells. Kind of data set: Cell growth assay, MAC16 cells in vitro. Format: cell-based, mouse.
For the next data set, the system named is MAC16 tumor. Conditions: cited from earlier work; for loss of body weight of mice bearing MAC-16 tumor: Eley et al., Biochem J. 2007; for tumor growth in mice bearing the MAC16 tumor: literature reports.
The target of data set [1] is T1, PKR (Mus musculus, UniProt Q03963).
T1 construct: endogenous in cells; host or cells: MAC16 and MAC13 murine colon adenocarcinoma cells in culture
T1 sequence (Q03963 1-515): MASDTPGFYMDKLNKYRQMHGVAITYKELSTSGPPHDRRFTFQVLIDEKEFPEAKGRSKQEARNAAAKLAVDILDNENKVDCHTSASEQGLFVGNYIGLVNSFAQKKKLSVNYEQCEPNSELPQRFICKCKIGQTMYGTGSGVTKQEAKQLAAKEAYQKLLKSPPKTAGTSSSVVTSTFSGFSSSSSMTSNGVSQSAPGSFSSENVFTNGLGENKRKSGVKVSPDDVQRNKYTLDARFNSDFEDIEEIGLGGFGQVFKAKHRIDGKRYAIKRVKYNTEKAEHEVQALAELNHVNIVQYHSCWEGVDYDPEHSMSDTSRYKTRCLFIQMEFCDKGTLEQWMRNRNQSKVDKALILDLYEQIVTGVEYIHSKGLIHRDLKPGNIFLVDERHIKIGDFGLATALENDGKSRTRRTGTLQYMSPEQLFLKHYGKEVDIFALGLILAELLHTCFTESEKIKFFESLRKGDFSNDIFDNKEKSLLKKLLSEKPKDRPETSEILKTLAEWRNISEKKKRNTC
Kind of data set: Western blot of phospho and total PKR in MAC16 cells. Format: cell-based. On the procedure:
(§1) Samples (approximately 10 mg) of tumor were homogenised in 500 μl of PhosphoSafe™ Extraction Reagent and centrifuged at 15,000 g for 15 min at 4° C. Portions of cytosolic protein (10 μg) were resolved on 10% sodium dodecyl sulphate/polyacrylamide gels (SDS/PAGE; 6% for eIF2α). The resolved proteins were transferred onto 0.45 μm nitrocellulose membranes, which had been blocked with 5% Marvel in Tris-buffered saline, pH 7.5, at 4° C. overnight. Membranes were then washed for 15 min in 0.5% Tween-buffered saline, or TBS-Tween, prior to the addition of primary antibodies. The primary antibodies were used at a dilution of 1:1000, except for phospho eIF2α, which was used at 1:500. The primary antibodies were washed off the membranes for 15 min, with buffer changes every 5 min, using 0.1% TBS-Tween. The secondary antibodies were used at a dilution of 1:1000, and were washed off after 45 min. Development was by ECL, and films were developed for 3-6 min. Blots were scanned by a densitometer to quantify differences.
A general note: Immunoblotting shows a protein as a band on a membrane.

The target of data set [2] is T1, PKR. Kind of data set: Western blot of phospho and total PKR in MAC16 tumor from treated mice. The data set is classed as in vivo. Conditions: mice bearing MAC16 tumor. The source says: (§2) Both the MAC16 and MAC13 tumors were passaged in vivo in NMRI mice by transplanting fragments subcutaneously (s.c.) into the flank, as described in Bibby et al., J. Natl. Cancer Inst., 78(3):539-546, 1987. To maintain cachexia, the MAC16 tumor for passage was selected from donor animals with established weight loss, and treatment was initiated when the average weight loss was 5%. Animals were randomized into groups of six to receive solvent (DMSO (dimethylsulfoxide): PBS (phosphate-buffered saline); 1:20) or the PKR inhibitor at 1 and 5 mg/kg administered daily by s.c. injection. Animals were terminated by cervical dislocation when the body weight loss reached 20%. All animal experiments followed a strict protocol approved by the British Home Office, and the ethical guidelines that were followed meet the standards required by the UKCCR guidelines (Workman, P. et al., Br. J. Cancer, 77:1-10, 1998).
(§3) Samples (approximately 10 mg) of tumor were homogenised in 500 μl of PhosphoSafe™ Extraction Reagent and centrifuged at 15,000 g for 15 min at 4° C. Portions of cytosolic protein (10 μg) were resolved on 10% sodium dodecyl sulphate/polyacrylamide gels (SDS/PAGE; 6% for eIF2α). […] Blots were scanned by a densitometer to quantify differences.

In a further data set the test system is NF-κB. Kind of data set: EMSA of nuclear NF-κB in MAC16 tumor from treated mice. Format: in vivo, mouse. Conditions: mice bearing MAC16 tumor, 5 mg/kg for 4 days (FIG. 7B).
Source text: as §2
DNA-binding proteins were isolated from tumor samples by hypotonic lysis, followed by high salt extraction of nuclei according to the method of Andrews and Faller (Nucleic Acids Res., 19(9):2499, 1991). EMSA was carried out using a Panomics EMSA “gel shift” kit, according to the manufacturer's instructions
In general terms: In EMSA bound probe runs differently from free probe, usually more slowly.

For a further data set, the system named is 20S proteasome. Kind of data set: Western blot of 20S proteasome α-subunits in MAC16 cells. The data set is classed as cell-based, mouse. Conditions: MAC16 cells (FIG. 5C). The method, then: as §1
Data set [3] can be described thus: Toxicity in mice treated with the PKR inhibitor. Conditions: inhibition of autophosphorylation of PKR in mice. Format: in vivo, mouse.
Source text: as §2

A further data set has as its system eIF2α. Kind of data set: Western blot of phospho and total eIF2α in MAC16 tumor from treated mice. Format: in vivo, mouse. Conditions: mice bearing MAC16 tumor.
Source text: as §2, §3

In data set [4] the target is T1, PKR. Kind of data set: Western blot of phospho and total PKR in MAC13 cells. Format: cell-based. On the procedure: as §1
The test system of the next data set is MAC13 cells. Kind of data set: Cell growth assay, MAC13 cells in vitro. The data set is classed as cell-based, mouse. Conditions: concentration up to 1000 nM (FIG. 2). The method, then:
The MAC16 and MAC13 tumors were propagated in vitro in RPMI 1640 medium containing 10% FCS at 37° C., under an atmosphere of 5% CO2 in air. For cell growth assays, cells were seeded at either 0.5×10^5 cells per well (MAC13) or 1×10^5 cells per well (MAC16) in 24 well multi-well dishes and allowed to accumulate for 24 h prior to drug addition. Cell number was determined three days later, whilst the cells were in exponential growth.

For data set [5], the system named is human pancreatic cancer cells. Conditions: in vitro, literature reports; cited from earlier work.

Take `O=c1[nH]cc(F)c(=O)[nH]1` [5FU, 5-fluorouracil]: the “growth of MAC16 cells, agent alone” value in the data set with MAC16 cells (5FU alone at concentrations between 1 and 10 μM (FIG. 8)) is given as “significant inhibition”.
Turning to `CC(C)[C@H](N)C(=O)O` [valine], in the data set with MAC16 tumor, the “loss of body weight of mice bearing MAC-16 tumor” value was “significantly suppress”.
For the compound `Nc1ccn([C@@H]2O[C@H](CO)[C@@H](O)C2(F)F)c(=O)n1` [gemcitabine, Gemcitabine], the “growth of MAC16 cells, agent alone” value in the data set on MAC16 cells (gemcitabine alone, 3.8-38 μM (FIG. 8)) is listed as “inhibition of growth”.
As to `O=C1Nc2ccc3ncsc3c2/C1=C/c1c[nH]cn1` [PKR inhibitor, 8-[1-(1H-imidazol-4-yl)meth-(Z)-ylidene]-6,8-dihydro-thiazol[5,4-e]indol-7-one], in the data set on MAC16 cells (MAC16 in vitro, cell number after three days, higher concentrations less effective (FIG. 2)), the “concentration of maximum inhibition of cell growth” value was 200 nM. In the data set with MAC16 cells (PKR inhibitor at 100 or 200 nM combined with 5FU 1-10 μM (FIG. 8)), the “effect on 5FU-induced inhibition of growth of MAC16 cells” value is recorded as “significantly potentiated”. The “effect on gemcitabine-induced inhibition of growth of MAC16 cells” value in the data set on MAC16 cells (PKR inhibitor at 100 or 200 nM combined with gemcitabine (FIG. 8)) is reported as “potentiated”. Besides, the “effect on total PKR in the cell” value on PKR [1] (MAC16 cells) and on PKR [4] was “In neither cell line was there an effect” each time. The “concentration maximally effective in inhibiting PKR” value on PKR [1] (increasing concentrations have a reduced inhibitory effect) came out at 200 nM. The “total level of PKR in MAC16 tumor” value on PKR [2] (1 or 5 mg/kg daily s.c.) is listed as “without an effect”. Further, on PKR [2] (1 or 5 mg/kg daily s.c. (FIG. 4A)), the “increased phosphorylation of PKR in MAC16 tumor” value is recorded as “complete attenuation”. Further, the “constitutive activation of NF-κB in the tumor” value in the data set with NF-κB was “attenuated”. In the data set with 20S proteasome, the “expression of the 20S proteasome” value was “attenuated”. For the same compound, in the data set on MAC16 tumor (Eley et al, 2007), the “muscle atrophy in mice bearing the MAC16 tumor” value was “attenuated”. Further, the “tumor growth in mice bearing the MAC16 tumor” value with MAC16 tumor was “inhibited”. Besides, the toxicity in mice entry in data set [3] is given as “did not produce toxicity”. The “total level of eIF2α in MAC16 tumor” value with eIF2α (1 or 5 mg/kg daily s.c.) is given as “without an effect”. In the data set with eIF2α (1 or 5 mg/kg daily s.c. (FIG. 4B)), the “increased phosphorylation of eIF2α in MAC16 tumor” value is “complete attenuation”. Besides, at PKR [4] (low levels of autophosphorylation (FIG. 5B)), the “effect on autophosphorylation of PKR” value was “no effect”. In addition, the “effect on growth of the MAC13 tumor in vitro” value in the data set with MAC13 cells is on record as “no effect”.
As to `CC(C)C[C@H](NC(=O)[C@H](Cc1ccccc1)NC(=O)c1cnccn1)B(O)O` [PS-341], in data set [5], the “growth / proliferation of human pancreatic cancer cells” value was “block proliferation”.
With `COc1cc(/C=C/C(=O)CC(=O)/C=C/c2ccc(O)c(OC)c2)ccc1O` [curcumin], in [5], the “growth / proliferation of human pancreatic cancer cells” value is “inhibits”.
In the case of `Oc1ccc(C=Cc2cc(O)cc(O)c2)cc1` [resveratrol], in the data set on MAC16 tumor, the “tumor growth in mice bearing the MAC16 tumor” value is “inhibited”.
`CC(C)C[C@H](N)C(=O)O` [leucine]: the “loss of body weight of mice bearing MAC-16 tumor” value with MAC16 tumor was “significantly suppress”.
